Reference: patent US20260284020A1, “LATS KINASE INHIBITOR TO TREAT RETINAL DEGENERATION” (Children's Hospital Los Angeles, priority 2023, published 2026)
Entries after “also recorded” stand apart in the source; their conditions may differ.

Tested on: primary human fetal RPE monolayers
Assay: In vitro wound healing (scratch) assay in RPE monolayers
Type: cell-based
Conditions: for wound healing (wound closure, change in wound area as a percentage): 1 μM, mean±SE
Description: Approximately 72 hours before wound induction, culture media for primary human fetal RPE either remained supplemented with 5% FBS as above (FBS-containing condition) or was replaced with culture media not containing FBS (FBS-free condition). Culture media for iPSC-derived RPE either remained as X-VIVO media as above (FBS-free condition) or was supplemented with 5% FBS (FBS-containing condition).
Following 72-hour acclimation period, RPE monolayers were then subjected to a controlled horizontal scratch using the WoundMaker Tool™ (Essen BioScience Ltd., Welwyn Garden City, United Kingdom) according to the protocol provided by the manufacturer. Wells were subsequently washed 1-2 times with their respective media in order to remove cell debris. Cells were then treated with either 1 μM DMSO (as control) or 1 μM TDI-011536 dissolved in either FBS-containing or FBS-free media. To label and track proliferating cells, cells were incubated with 10 μM 5-Ethynyl-2′-deoxyuridine (EdU) for 96 hours.
Each well was imaged immediately following the scratch injury with a DMI6000B microscope equipped with 10×/0.3 HC PL FLUOTAR Ph1 (Leica Microsystems, Buffalo Grove, IL) and ORCA-Flash4.0 LT camera (Hamamatsu Corp., Bridgewater, NJ). Along the length of each scratch, 2-3 ROIs measuring 1100 μm in length were imaged again 24, 48, 72, and 96 hours after the scratch injury. All ROIs were positioned in the central portion of the scratch. Coordinates of ROIs within each well were stored using Leica Application Suite X software. Non-uniform scratches and/or those with small width or resulting in monolayer detachment were excluded.
Scratch areas in μm^2 for each ROI were obtained using the Wand Tool in QuPath at each time point (e.g., 0, 24, 48, 72, and 96 hours after the scratch). Wound healing was quantified as the difference in scratch area at each time point normalized to (e.g., divided by) the total area immediately post-scratch, expressed as a percentage.
A wound healing assay, which involves creating a uniform scratch on a confluent monolayer of cells, is a commonly used method to study response to injury in vitro. To assess whether Hippo pathway inhibition promotes RPE regeneration, a wound healing assay was performed on primary human fetal RPE monolayers grown on 96-well plates in various culture conditions. RPE monolayers were subjected to a horizontal scratch and incubated with EdU and either LKI or vehicle. Wound closure was monitored every 24 hours for 96 hours total (FIGS. 1A and 1B).

O=C(/N=c1\scc(CO)n1Cc1ccccc1)c1c[nH]c2ncccc12 [TDI-011536]
wound healing (wound closure, change in wound area as a percentage) (24 hours after scratch, FBS-free media): 25.06±0.96% | difference in wound closure, LKI compared to control (24 hours, FBS-free media): 8.25±1.49% | wound healing (wound closure, change in wound area as a percentage) (48 hours after scratch, FBS-free media): 58.72±1.37% | difference in wound closure, LKI compared to control (48 hours, FBS-free media): 17.53±2.00% | wound healing (wound closure, change in wound area as a percentage) (72 hours after scratch, FBS-free media): 85.14±1.16% | difference in wound closure, LKI compared to control (72 hours, FBS-free media): 19.78±1.81% | wound healing (wound closure, change in wound area as a percentage) (96 hours after scratch, FBS-free media): 91.14±1.17% | difference in wound closure, LKI compared to control (96 hours, FBS-free media): 14.02±1.85% | wound closure compared to DMSO (in words) (FBS-containing media, all timepoints): significantly increased wound closure at all timepoints | wound closure compared to control (in words) (FBS-free media, all time points 24-96 hours, listed as LKI): significantly increased at all time points; also recorded: significantly improved wound closure at all time points
